Results taken from patent publication US8546421B1, “Oncogenic-RAS-signal dependent lethal compounds” (The Trustees of Columbia University in the City of New York, priority 2007, dated 2013).
“And” between values parts separate entries of the source, which are not always exact repeats. Equal values may be shown once. “Also recorded” adds a separate entry of the source.

Assays:
[1] = tested on: SK-OV-3; experiment: NCI60 anti-cancer screening; details: for GI50 / CC50: Homo sapiens; for GI50 / GI 100%: SK-OV-3; for CC50: SK-OV-3, read-out: LC 50%; for GI 100%: Ovarian Cancer
[2] = tested on: OVCAR-5; experiment: NCI60 anti-cancer screening; details: for GI50 / CC50: Homo sapiens; for GI50 / GI 100%: OVCAR-5; for CC50: OVCAR-5, read-out: LC 50%; for GI 100%: Ovarian Cancer
[3] = tested on: SNB-19; experiment: NCI60 anti-cancer screening; details: for GI50 / CC50: Homo sapiens; for GI50 / GI 100%: SNB-19; for CC50: SNB-19, read-out: LC 50%; for GI 100%: CNS Cancer
[4] = tested on: HCT-15; experiment: NCI60 anti-cancer screening; details: for GI 100% / GI50: HCT-15; for GI 100%: Colon Cancer; for GI50 / CC50: Homo sapiens; for CC50: HCT-15, read-out: LC 50%
[5] = tested on: NCI-H226; experiment: NCI60 anti-cancer screening; details: for GI50 / CC50: Homo sapiens; for GI50 / GI 100%: NCI-H226; for CC50: NCI-H226, read-out: LC 50%; for GI 100%: Non-small cell lung carcinoma
[6] = tested on: IGROV1; experiment: NCI60 anti-cancer screening; details: for GI50 / CC50: Homo sapiens; for GI50: IGROV-1; for CC50: IGROV-1, read-out: LC 50%; for GI 100%: IGROV1, Ovarian Cancer
[7] = tested on: CAKI-1; experiment: NCI60 anti-cancer screening; details: for GI 100% / GI50: CAKI-1; for GI 100%: Renal Cancer; for GI50 / CC50: Homo sapiens; for CC50: CAKI-1, read-out: LC 50%
[8] = tested on: A549/ATCC; experiment: NCI60 anti-cancer screening; details: for GI 100%: A549/ATCC, Non-small cell lung carcinoma; for GI50 / CC50: Homo sapiens; for GI50: A549; for CC50: A549, read-out: LC 50%
[9] = tested on: EKVX; experiment: NCI60 anti-cancer screening; details: for GI50 / CC50: Homo sapiens; for CC50: read-out: LC 50%; for GI 100%: Non-small cell lung carcinoma
[10] = tested on: 60 different human cancer cell lines (the NCI60 panel); experiment: NCI60 anti-cancer screening, whole panel; assay type: cell-based
Protocol: NCI60 anti-cancer screening (“NCI60 test”) is a system that provides an opportunity to assess a drug candidate's potency and selectivity at a relatively early stage of drug discovery. […] Such compounds would be expected to kill sensitive cancer cells while having minimal effect on healthy cells in a predetermined concentration range. NCI60 anti-cancer screening makes use of 60 cancer cell lines from different human tissue origins. Cells are seeded on a 96-well plate, treated with lethal compounds in 5-point, 10-fold dilution series pattern starting at 100 μM (i.e. 10 nM, 100 nM, 1 μM, 10 μM, 100 μM) for 2 days, and measured for cell viability using sulforhodamine B dye. The optical densities of treated samples are determined using a plate reader and percent growth value is calculated by processing the optical density value.
The entire NCI60 test is replicated at least twice to ensure consistency of the data and to determine accurate GI50, TGI and LC50 values. The panel of results for each candidate compound in the NCI60 test is known as the “sensitivity profile.”

[11] = tested on: HT1080 cells; experiment: Alamar blue assay with bioactive suppressors in HT1080; assay type: cell-based, human; details: 150 μM DFOM, 10 μM U0126, 50 μM SU6656, or 100 μM Vitamin E
Protocol: (§1) On the day of experiment, assay plates were prepared by seeding 3,000 HT1080, HT1080-pLKO, HT1080-TfR1 KD, Calu-1, Calu-1-pLKO, or Calu-1-509 cells per well in 36 μL of growth media to black, clear bottom 384-well plates. Also, assay plates were prepared by seeding 1,500 shRNA infected HT1080 or Calu-1 cells per well. Cells in assay plates were treated with each lethal compound in a 2-fold dilution series by transferring 4 μL solution from a 10× lethal plate of Erastin, Compound 3, Compound 27, or Compound 36. […] Percent growth inhibition (% GI) was calculated using fluorescence intensity values.

[12] = tested on: BJeH, BJeHLT, BJeLR and DRD cells; experiment: Cell growth inhibition by stereoisomers of Compound 27; details: Homo sapiens
[13] = tested on: PARP-1 cleavage in BJ-TERT/LT/ST/RAS^V12 cells; experiment: Western blot of PARP-1 cleavage upon compound treatment; assay type: cell-based, human; details: Western blot with anti-PARP-1 antibody
Protocol: 2×10^6 BJ-TERT/LT/ST/RAS^V12 cells were seeded in 10 cm dishes and treated with 1 μM staurosporine, 10 μg/mL erastin, 20 μg/mL Compound 3, and 1 μg/mL Compound 27 for 16 h. Both dying cells and live cells in each 10 cm dish were harvested and collected in the same 15 mL tubes by centrifuging cell suspension at 1,000 rpm for 5 min. Cell pellets were washed three times with PBS and cells were lysed in 200 μL of denaturing lysis buffer (50 mM HEPES KOH [pH 7.4], 40 mM NaCl, 2 mM EDTA, 1.5 mM Na3VO4, 50 mM NaF, 10 mM sodium pyrophosphate, 10 mM sodium β-glycerophosphate, 0.5% Triton X-100, and protease inhibitor tablet [Roche, cat.#11836170001]). Protein content was quantified using a Bio-Rad protein assay reagent (Bio-Rad, cat.#500-00006). Equal amounts of protein were resolved on SDS-polyacrylamide gels. The electrophoresed proteins were transblotted onto a PVDF membrane, blocked with 5% milk, and incubated with rabbit primary antibodies specific to: PARP (Santa Cruz, cat.#sc-7150), cleaved caspase-3 (Cell Signaling Technology, cat.#9661) overnight at 4° C. The membrane was then incubated in IRDye 800 goat anti-rabbit antibody (Li-cor Bioscience cat.#926-32211) at 1:3,000 dilutions for 45 min at room temperature. After washing off the unbound antibodies, membranes were scanned using the Odyssey™ Imaging System (Li-cor Bioscience).

[14] = tested on: Calu-1 cells expressing shRNAs targeting HRAS, NRAS or KRAS; experiment: Drug sensitivity after shRNA knockdown of RAS; assay type: cell-based, human; details: alamar blue
Protocol: On day one, 3×10^5 Calu-1 cells or 2×10^5 HT1080 cells were seeded in 10-cm dishes; on day 2, frozen virus stock was thawed at 37° C., hexadimethrine bromide (polybrene) (Sigma, cat.#H9268) was added to the virus solution at a final concentration of 8 μg/mL and growth media from cell culture was replaced with the virus/polybrene mixture. The culture was returned to the tissue culture incubator for 2 hours, with rocking of the dishes every 30 min in order to prevent drying. After 2 h, 10 mL growth medium was added, the culture was incubated for 2 days, and cells stably expressing shRNA were selected by adding puromycin (Sigma, cat.#P9620) at a final concentration of 1.5 μg/mL.
as §1

SMILES	GI50 [1] [nM]	CC50 [1] [nM]	GI 100% [1] [µM]	GI50 [2] [nM]	CC50 [2] [nM]	GI 100% [2] [µM]	GI50 [3] [nM]	CC50 [3] [nM]	GI 100% [3] [µM]	GI 100% [4] [µM]	GI50 [4] [nM]	CC50 [4] [nM]	GI50 [5] [nM]	CC50 [5] [nM]	GI 100% [5] [µM]	GI50 [6] [nM]	CC50 [6] [nM]	GI 100% [6] [µM]	GI 100% [7] [µM]	GI50 [7] [nM]	further results
C=C1CCC2C(C)(C)CCC[C@]2(C)C1CC/C(C)=C\CC/C(C)=N/NC(N)=S (stereo partly shown) [Compound 36]	1260	5200	2.56	492	4330	1.62	1050	5000	2.29	1.53	305	3930	480	4550	1.66	254	4170	1.28	0.413	165	CC50 [7]: 1080 nM; GI 100% [8]: 2.4 µM; GI50 [8]: 1110 nM; CC50 [8]: 5150 nM; GI50 [9]: 1240 nM; CC50 [9]: 5090 nM; GI 100% [9]: 2.51 µM
COC(=O)c1ccc(C2c3[nH]c4ccccc4c3CC(C(=O)OC)N2C(=O)CCl)cc1 (stereo not shown) [Compound 27]	1680	6670	3.34	2240	> 10000	5.71	2350	> 10000	7.41	2.83	1450	5540	688	> 10000	2.79	20.9	270	0.0571	0.0381	21.1	difference in sensitivity between resistant and sensitive cell lines [10]: up to 10^4 fold; potency / selectivity in NCI60 (in words) [10]: nanomolar (nM) concentration range; treatments that inhibit compound-induced cell death in HT1080 cells [11]: iron chelators, MEK inhibitors or non-receptor tyrosine kinase inhibitors effectively inhibited; EC50 [12]: ~0.05 µg/mL and ~100 nM; PARP-1 cleavage / type of cell death [13]: activate a non-apoptotic pathway; sensitivity of Calu-1 cells after RAS shRNA compared with parental cells [14]: more resistant; also recorded: less effective; CC50 [7]: 68.7 nM; GI 100% [8]: >10 µM; GI50 [8]: 2510 nM; CC50 [8]: > 10000 nM; GI50 [9]: 2310 nM; CC50 [9]: > 10000 nM; GI 100% [9]: 5.63 µM
COCCOC(=O)C1=C(C)NC2=C(C(=O)CC(c3ccc(Cl)cc3)C2)C1c1ccccc1F (stereo not shown) [Compound 3]	–	–	–	–	–	–	–	–	–	–	–	–	–	–	–	–	–	–	–	–	PARP-1 cleavage / type of cell death [13]: activate a non-apoptotic pathway
